Biological target: T1, ChElp2 (Colletotrichum higginsianum, UniProt H1UVH3)
T1 construct: gene ELP2
Details: 25 °C

T1 sequence (H1UVH3 19-176): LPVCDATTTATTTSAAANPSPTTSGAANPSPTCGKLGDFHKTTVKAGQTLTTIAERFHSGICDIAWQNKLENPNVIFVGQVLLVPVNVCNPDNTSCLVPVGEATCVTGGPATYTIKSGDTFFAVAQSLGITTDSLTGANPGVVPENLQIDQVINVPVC

SMILES: CC(=O)N[C@H]1[C@H](O[C@H]2[C@H](O)[C@@H](NC(C)=O)[C@H](O[C@H]3[C@H](O)[C@@H](NC(C)=O)C(O)O[C@@H]3CO)O[C@@H]2CO)O[C@H](CO)[C@@H](O[C@@H]2O[C@H](CO)[C@@H](O[C@@H]3O[C@H](CO)[C@@H](O[C@@H]4O[C@H](CO)[C@@H](O)[C@H](O)[C@H]4NC(C)=O)[C@H](O)[C@H]3NC(C)=O)[C@H](O)[C@H]2NC(C)=O)[C@@H]1O (stereo partly shown) [Chi6, hexaacetylchitohexaose]
- Kd: 5.03 ± 0.241 µM
